Reference: ChEMBL document CHEMBL3352607, “Exploiting the anti-HIV 6-desfluoroquinolones to design multiple ligands” (Bioorg Med Chem, 2014)
Calls of active or inactive are those of the source. The calls are words filed in the database; no cut-off is given here.

Columns and labels:
[1] = molecular target: T1, Protein Tat (Human immunodeficiency virus type 1 group M subtype B (isolate HXB2)(HIV-1)) (UniProt P04608); assay: Inhibition of HIV1 Tat-mediated transactivation of HIV1 long terminal repeat in human HeLa cells after 24 hrs by LTR driven luciferase reporter assay; format: cell-based; details: Human immunodeficiency virus 1
T1 sequence (whole entry): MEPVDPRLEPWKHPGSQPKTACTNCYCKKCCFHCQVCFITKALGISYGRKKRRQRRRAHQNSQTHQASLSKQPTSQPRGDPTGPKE

[2] = tested on: Human immunodeficiency virus 1; assay: Antiviral activity against HIV1 3B acutely infected in human MT4 cells assessed as inhibition of virus-induced cytopathogenic effect after 5 days by MTT assay; format: functional, organism-based; details: Human immunodeficiency virus 1, 3B, MT4, 120 h
[3] = Cytotoxicity against mock-infected human MT4 cells after 5 days by MTT assay; format: cell-based
[4] = molecular target: T2, Human immunodeficiency virus type 1 reverse transcriptase (Human immunodeficiency virus 1, UniProt Q72547); assay: Inhibition of HIV1 recombinant wild type reverse transcriptase p66/p51 using dsDNA by microplate reader based assay
[5] = tested on: Human immunodeficiency virus 2; assay: Antiviral activity against HIV2 ROD acutely infected in human MT4 cells assessed as inhibition of virus-induced cytopathogenic effect after 5 days by MTT assay; format: functional, organism-based; details: Human immunodeficiency virus 2, ISOLATE ROD, MT4, 120 h
[6] = molecular target: T2, Human immunodeficiency virus type 1 reverse transcriptase; assay: Inhibition of HIV reverse transcriptase
[7] = Cytotoxicity against human OM10.1 cells by MTT assay; format: cell-based
[8] = tested on: Human immunodeficiency virus 1; assay: Antiviral activity against HIV1 latently infected in PMA-stimulated human OM10.1 cells assessed as reduction in p24 antigen levels pre-incubated for 2 hrs with host cells followed by 2 day incubation; format: functional, organism-based
[9] = tested on: HeLa; assay: Cytotoxicity against human HeLa cells at 10 uM to 200 uM after 24 hrs; format: cell-based
[10] = Selectivity index, ratio of CC50 for human OM10.1 cells to IC50 for HIV1 latently infected in human OM10.1 cells; format: functional

SMILES | inhibition [1] | EC50 [2] [µM] | CC50 at 120 h [3] [µM] | IC50 [4] [µM] | EC50 [5] [µM] | IC50 [6] [µM] | CC50 [7] [µM] | EC50 [8] [µM] | Activity [9] | Ratio CC50/IC50 [10]
CCN1c2ncccc2NC(=O)c2cc(NCCNc3cc4c(cc3N)c(=O)c(C(=O)O)cn4C)cnc21 | inactive | > 200 | > 200 | 73.4 | > 200 |  |  |  |  | 
CCN1c2ncc(CCOc3cc[n+]([O-])c4ccccc34)cc2C(=O)N(C)c2cccnc21 [BILR 355] |  |  |  |  |  | 0.017 |  |  |  | 
Cc1ccnc2c1NC(=O)c1cccnc1N2C1CC1 [NEVIRAPINE] |  |  | > 15 |  | > 15 |  |  |  |  | 
Cn1cc(C(=O)O)c(=O)c2cc(N)c(N3CCN(c4ccccn4)CC3)cc21 |  | 0.15 |  | 800 | 0.25 |  | 31.2 | 0.076 |  | 
CCN1c2ncccc2NC(=O)c2cc(N3CCN(c4cc5c(cc4N)c(=O)c(C(=O)O)cn5C)CC3)cnc21 | inactive | > 25.7 | 25.7 | 14.8 | > 25.7 |  |  |  |  | 
CCN1c2ncccc2NC(=O)c2ccc(N3CCN(c4cc5c(cc4N)c(=O)c(C(=O)O)cn5C)CC3)nc21 | Dose-dependent effect | > 23.5 | 23.5 | 8.4 | > 23.5 |  | 18.4 | 5.11 | Non-toxic | 4
